This note sets out measurements from patent publication US20120128646A1, “METHODS AND COMPOSITIONS FOR THE TREATMENT OF AUTOIMMUNE DISEASE” (priority 2009, published 2012).

Entries after “also recorded” stand apart in the source; their conditions may differ. Where no end group is shown, it is not given here.

The subject of one assay is T cell clone BDC-2.5. Nature of the assay: IFNγ production by T cell clone in antigen assay (ELISA). It counts as cell-based, NOD mouse. Conditions: peptide or preparation as antigen. From the text:
The T cell clones are maintained in culture by periodic re-stimulation with irradiated NOD splenocytes and islet cells or β-membrane. To assay for antigen, resting responder T cells (i.e., for example, the cells at the end of the two-week restimulation period) are co-cultured for 24 hr with elicited peritoneal macrophages (PEC) as APC and either a test sample or control antigen. Control antigen will be in the form of islet cells or the whole-cell membrane fraction (i.e., for example, a β-membrane fraction). As described above, unlysed β-membrane is stored in aliquots at −80° C. for this purpose. Negative controls include responder cells alone and responders plus APC.
At the end of the culture period, supernatants are collected from the cultures and IFNγ production is measured by ELISA. Wells positive for IFNγ are indicative of T cells responding to antigen; the amount of cytokine produced is calculated from a standard curve and is directly proportional to the amount of antigen present.
Antigenicity of islet cells, cellular and biochemical fractions, peptides, or insect cells expressing IA^g7-peptide constructs, was assessed through responses of T cell clones or hybridomas made by fusing T cell clones to the TCR^− version of T cell lymphoma, BW5147. White et al., “Two better cell lines for making hybridomas expressing specific T cell receptors” J Immunol 143:1822-1825 (1989). T cell clone cultures typically contained 2×10^4 responder T cells, 2.5×10^4 NOD peritoneal exudate cells (PEC) as APC, and antigen (SEC/IEX fractions, peptides, islet cells); all assays were performed with β-Mem as a positive control. IFNγ was measured by ELISA of culture supernatants. For cultures with T cell hybridomas, antigen/MHC activation was assessed by IL-2 production measured by a bioassay using the HT-2 T cell line. Walker et al., “Antigenspecific. I region-restricted interactions in vitro between tumor cell lines and T cell hybridomas” J Immunol 128:2164-2169 (1982). Synthetic peptides were either produced in the Molecular Resource Center at National Jewish Health or obtained from CHI Scientific, Maynard, Mass.
On the technique in general: In an ELISA, binding on a coated surface is turned into a signal by an enzyme label.
Take “Enz: WE14 after transglutaminase modification (WSRMDQLAKELTAE; also: transglutaminase modification, site not given here)”: the “Stimulation of T cell clone BDC-2.5 (IFNγ response), result in words” value is reported as “highly antigenic”.
Same read-out and setting: the entry for “WSRMD [WD5, shortest C-terminal truncation of WE14, motif only]” is “decreasing stimulatory activity; also recorded: lacked any activity at all”; for “WA8: sequential C-terminal truncation of WE14 (WSRMDQLA)” it is “decreasing stimulatory activity”.
Same read-out and setting: the result for QWEDKRWSRMDQA reads “unable to stimulate”.

The subject of a further assay is BDC-10.1 T cell hybridoma. Nature of the assay: CD69 upregulation on T cell hybridoma co-cultured with insect cells infected with linked peptide I-A^g7 viruses. In kind it is cell-based, mouse. Conditions: hybridomas 3 × 10^5/mL, 3 hrs co-culture with infected insect cells 1 × 10^5/mL. The method, then: (§1) FIG. 13F: The p3 glycine of pS3 was mutated to other amino acids. The effect of the mutations on early activation of the three BDC hybridomas was assessed by CD69 induction. The results are shown as the percent of cells expressing CD69 relative to those activated with the unmutated pS3 peptide. […] The sequences of the pS3 and ChgA peptide are also shown, highlighting the amino acids at the p3 position.
(§2) A mutational analysis was performed of 3 L mimotope at positions 2 and 3 followed by their respective ability to stimulate BDC-2.5, BDC-10.1 and BDC-5.10.3 hybridomas with 3 L mimotope substituted peptides. See, Table 3.
Consider SRLGLWVRME, for which the “Stimulation BDC-10.1 (upregulation of CD69)” value was “+ (A positive response (+) indicates >40% of the hybridoma population stained above a background staining of 1% for unstimulated or of the same T cell hybridoma)”.
As to SRLSLWVRME, the “Stimulation BDC-10.1 (upregulation of CD69)” value was “+ (A positive response (+) indicates >40% of the hybridoma population stained above a background staining of 1% for unstimulated or of the same T cell hybridoma)”.
Still for that read-out and setting: the result for SRLRLWVRME reads “+ (A positive response (+) indicates >40% of the hybridoma population stained above a background staining of 1% for unstimulated or of the same T cell hybridoma)”; that for SRLPLWVRME, “+ (A positive response (+) indicates >40% of the hybridoma population stained above a background staining of 1% for unstimulated or of the same T cell hybridoma)”.
For the substance SRLALWVRME, the “Stimulation BDC-10.1 (upregulation of CD69)” value was “+ (A positive response (+) indicates >40% of the hybridoma population stained above a background staining of 1% for unstimulated or of the same T cell hybridoma)”.
Still for that read-out and setting: the entry for SRLVLWVRME is “+ (A positive response (+) indicates >40% of the hybridoma population stained above a background staining of 1% for unstimulated or of the same T cell hybridoma)”.
Still for that read-out and setting: the result for SRLTLWVRME reads “+ (A positive response (+) indicates >40% of the hybridoma population stained above a background staining of 1% for unstimulated or of the same T cell hybridoma)”; that for SRFGLWVRME, “+ (A positive response (+) indicates >40% of the hybridoma population stained above a background staining of 1% for unstimulated or of the same T cell hybridoma)”; that for SRLMLWVRME, “+ (A positive response (+) indicates >40% of the hybridoma population stained above a background staining of 1% for unstimulated or of the same T cell hybridoma)”.
For the substance SRLHLWVRME, the “Stimulation BDC-10.1 (upregulation of CD69)” value is “+ (A positive response (+) indicates >40% of the hybridoma population stained above a background staining of 1% for unstimulated or of the same T cell hybridoma)”.
SRLYLWVRME: the “Stimulation BDC-10.1 (upregulation of CD69)” value is listed as “+ (A positive response (+) indicates >40% of the hybridoma population stained above a background staining of 1% for unstimulated or of the same T cell hybridoma)”.

Another assay deals with BDC-2.5 T cell hybridoma. The description is as above. In kind it is cell-based, mouse. The following applies: hybridomas 3 × 10^5/mL, 3 hrs co-culture with infected insect cells 1 × 10^5/mL. As for the experimental part:
as §1, §2
For SRLGLWVRME, the “Stimulation BDC-2.5 (upregulation of CD69)” value was “+ (A positive response (+) indicates >40% of the hybridoma population stained above a background staining of 1% for unstimulated or of the same T cell hybridoma)”.
Still for that read-out and setting: the entry for SRLSLWVRME is “+ (A positive response (+) indicates >40% of the hybridoma population stained above a background staining of 1% for unstimulated or of the same T cell hybridoma)”; for SRLRLWVRME it is “+ (A positive response (+) indicates >40% of the hybridoma population stained above a background staining of 1% for unstimulated or of the same T cell hybridoma)”.
For the substance SRLCLWVRME, the “Stimulation BDC-2.5 (upregulation of CD69)” value was “+ (A positive response (+) indicates >40% of the hybridoma population stained above a background staining of 1% for unstimulated or of the same T cell hybridoma)”.
Still for that read-out and setting: the entry for SRLPLWVRME is “+ (A positive response (+) indicates >40% of the hybridoma population stained above a background staining of 1% for unstimulated or of the same T cell hybridoma)”; for SRLALWVRME it is “+ (A positive response (+) indicates >40% of the hybridoma population stained above a background staining of 1% for unstimulated or of the same T cell hybridoma)”; for SRLTLWVRME it is “+ (A positive response (+) indicates >40% of the hybridoma population stained above a background staining of 1% for unstimulated or of the same T cell hybridoma)”.
For SRFGLWVRME, the “Stimulation BDC-2.5 (upregulation of CD69)” value is “+ (A positive response (+) indicates >40% of the hybridoma population stained above a background staining of 1% for unstimulated or of the same T cell hybridoma)”.

Another assay deals with BDC-5.10.3 T cell hybridoma. The assay is described as above. In kind it is cell-based, mouse. The following applies: hybridomas 3 × 10^5/mL, 3 hrs co-culture with infected insect cells 1 × 10^5/mL. The method, then: as §1, §2
Consider SRLGLWVRME, for which the “Stimulation BDC-5.1.3 (upregulation of CD69)” value is listed as “+ (A positive response (+) indicates >40% of the hybridoma population stained above a background staining of 1% for unstimulated or of the same T cell hybridoma)”.
Still for that read-out and setting: the result for SRLSLWVRME reads “+ (A positive response (+) indicates >40% of the hybridoma population stained above a background staining of 1% for unstimulated or of the same T cell hybridoma)”; that for SRLRLWVRME, “+ (A positive response (+) indicates >40% of the hybridoma population stained above a background staining of 1% for unstimulated or of the same T cell hybridoma)”; that for SRLCLWVRME, “+ (A positive response (+) indicates >40% of the hybridoma population stained above a background staining of 1% for unstimulated or of the same T cell hybridoma)”.
For the substance SRLPLWVRME, the “Stimulation BDC-5.1.3 (upregulation of CD69)” value is listed as “+ (A positive response (+) indicates >40% of the hybridoma population stained above a background staining of 1% for unstimulated or of the same T cell hybridoma)”.
Still for that read-out and setting: the result for SRLALWVRME reads “+ (A positive response (+) indicates >40% of the hybridoma population stained above a background staining of 1% for unstimulated or of the same T cell hybridoma)”; that for SRLVLWVRME, “+ (A positive response (+) indicates >40% of the hybridoma population stained above a background staining of 1% for unstimulated or of the same T cell hybridoma)”.
On the same count and under the same terms, the entry for SRLTLWVRME is “+ (A positive response (+) indicates >40% of the hybridoma population stained above a background staining of 1% for unstimulated or of the same T cell hybridoma)”.
On the same count and under the same terms, the result for SRLMLWVRME reads “+ (A positive response (+) indicates >40% of the hybridoma population stained above a background staining of 1% for unstimulated or of the same T cell hybridoma)”.
With SRLHLWVRME, the “Stimulation BDC-5.1.3 (upregulation of CD69)” value is listed as “+ (A positive response (+) indicates >40% of the hybridoma population stained above a background staining of 1% for unstimulated or of the same T cell hybridoma)”.
On the same count and under the same terms, the result for SRLYLWVRME reads “+ (A positive response (+) indicates >40% of the hybridoma population stained above a background staining of 1% for unstimulated or of the same T cell hybridoma)”.
